From patent US6274715A, “Tricyclic erythromycin derivatives” (priority 1997, dated 2001)
In brackets after ≈: the same amount, converted by molar mass.

How the values were obtained:
[1] = tested on: PSEUDOMONAS AERUGINOSA K799/WT; assay: In vitro antibacterial activity, MIC, BHI agar dilution; type: cell-based; details: P. aeruginosa K799/WT, unit assumed
ESCHERICHIA COLI H560 = assay: as above; type: cell-based; details: E. coli H560, unit assumed
ESCHERICHIA COLI DC-2 = assay: as above; type: cell-based; details: E. coli DC-2, unit assumed
PSEUDOMONAS CEPACIA 296I = assay: as above; type: cell-based; details: P. cepacia 296I, unit assumed
[2] = tested on: STAPHYLOCOCCUS EPIDERMIDIS 3519; type: cell-based; details: S. epidermidis 3519; BHI agar; unit assumed
[3] = tested on: PSEUDOMONAS AERUGINOSA DPHD-5263; assay: In vitro antibacterial activity, MIC, BHI agar dilution; type: cell-based; details: P. aeruginosa DPHD-5263, unit assumed
Grarn-negative bacteria = details: background statement; cited from earlier work
[4] = tested on: STREPTOCOCCUS PYOGENES 930; assay: In vitro antibacterial activity, MIC, BHI agar dilution; type: cell-based; details: S. pyogenes 930, unit assumed
[5] = tested on: STAPHYLOCOCCUS AUREUS NCTC10649M; assay: as above; type: cell-based; details: S. aureus NCTC10649M, unit assumed
ESCHERICHIA COLI KNK 437 = type: cell-based; details: E. coli KNK 437; BHI agar; unit assumed
[6] = tested on: STAPHYLOCOCCUS AUREUS A-5278; assay: In vitro antibacterial activity, MIC, BHI agar dilution; type: cell-based; details: S. aureus A-5278, unit assumed
[7] = tested on: PSEUDOMONAS AERUGINOSA 5007; assay: as above; type: cell-based; details: P. aeruginosa 5007, unit assumed
[8] = tested on: STAPHYLOCOCCUS AUREUS ATCC 6538P; assay: as above; type: cell-based; details: S. aureus ATCC 6538P, 35-37° C., 20 to 24 hours, unit assumed
[9] = tested on: STREPTOCOCCUS PYOGENES PIU 2548; assay: as above; type: cell-based; details: S. pyogenes PIU 2548, unit assumed
CANDIDA ALBICANS CCH 442 = assay: as above; type: cell-based; details: C. albicans CCH 442, unit assumed
[10] = tested on: PROVIDENCIA STUARTII CMX 640; type: cell-based; details: P. stuartii CMX 640; BHI agar; unit assumed
ESCHERICHIA COLI SS = assay: In vitro antibacterial activity, MIC, BHI agar dilution; type: cell-based; details: E. coli SS, unit assumed
[11] = tested on: KLEBSIELLA PNEUMONIAE ATCC 8045; assay: as above; type: cell-based; details: K. pneumoniae ATCC 8045, unit assumed
[12] = tested on: PSEUDOMONAS AERUGINOSA DPHD-2862; assay: as above; type: cell-based; details: P. aeruginosa DPHD-2862, unit assumed
[13] = tested on: STAPHYLOCOCCUS AUREUS CMX 553; assay: as above; type: cell-based; details: S. aureus CMX 553, unit assumed
[14] = tested on: PSEUDOMONAS AERUGINOSA K799/61; assay: as above; type: cell-based; details: P. aeruginosa K799/61, unit assumed
[15] = tested on: MYCOBACTERIUM SMEGMATIS ATCC 114; assay: as above; type: cell-based; details: M. smegmatis ATCC 114, unit assumed
STR[…] 508 = assay: as above; type: cell-based; details: S. agalactiae CMX 508, unit assumed
Outline: (§1)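 MIC was read visually as the lowest drug concentration showing no growth, a slight haze or sparsely isolated colonies relative to a compound-free BHI plate. Plates held serial aqueous dilutions in BHI agar, were spot-inoculated with 1:100 (or 1:10) culture dilutions and incubated 20 to 24 hours at 35-37° C.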

EN[…] ATCC 8043 = assay: as above; type: cell-based; details: E. faecium ATCC 8043, unit assumed
Outline: as §1

M[…] ATCC 9341 = assay: as above; type: cell-based; details: M. luteus ATCC 9341, unit assumed
Outline: as §1

M[…] ATCC 4698 = assay: as above; type: cell-based; details: M. luteus ATCC 4698, unit assumed
Outline: as §1

[16] = tested on: STAPHYLOCOCCUS AUREUS CMX 642A; assay: as above; type: cell-based; details: S. aureus CMX 642A, unit assumed
ESCHERICHIA COLI JUHL = type: cell-based; details: E. coli JUHL; BHI agar; unit assumed
[17] = tested on: PSEUDOMONAS AERUGINOSA BMH10; assay: In vitro antibacterial activity, MIC, BHI agar dilution; type: cell-based; details: P. aeruginosa BMH10, unit assumed
[18] = tested on: STAPHYLOCOCCUS AUREUS 1775; assay: as above; type: cell-based; details: S. aureus 1775, unit assumed
[19] = tested on: STREPTOCOCCUS PYOGENES EES61; assay: as above; type: cell-based; details: S. pyogenes EES61, unit assumed
[20] = tested on: ENTEROBACTER AEROGENES ATCC 13048; assay: as above; type: cell-based; details: E. aerogenes ATCC 13048, unit assumed
[21] = tested on: STREPTOCOCCUS BOVIS A-5169; assay: as above; type: cell-based; details: S. bovis A-5169, unit assumed
H. Influenza Dill AMP R = assay: In vitro antibacterial activity against H. Influenza Dill AMP R, MIC; type: cell-based; details: separate assay, unit assumed
Outline: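 Agar dilution in Brain Heart Infusion agar, twelve successive compound dilutions, inoculated by Steers replicator with 1:100 (1:10 for slow growers) culture dilutions. Incubation 35-37° C. for 20 to 24 hours; MIC is lowest concentration giving no growth, slight haze or sparse colonies versus drug-free control.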

[22] = tested on: STAPHYLOCOCCUS AUREUS A5177; assay: In vitro antibacterial activity, MIC, BHI agar dilution; type: cell-based; details: S. aureus A5177, unit assumed
[23] = tested on: ACINETOBACTER CALCOACETICUS CMX 669; assay: as above; type: cell-based; details: A. calcoaceticus CMX 669, unit assumed

Compound: CC[C@H]1OC(=O)[C@H](C)[C@@H](O[C@H]2C[C@@](C)(OC)[C@@H](O)[C@H](C)O2)[C@H](C)[C@@H](O[C@@H]2O[C@H](C)C[C@H](N(C)C)[C@H]2O)[C@](C)(O)C[C@@H](C)C(=O)[C@H](C)[C@@H](O)[C@]1(C)O [Ery A, Erythromycin A, reference compound]
- MIC [1]: 50 µg/mL (≈ 68.1 µM)
- MIC (ESCHERICHIA COLI H560): 25 µg/mL (≈ 34.1 µM)
- MIC (ESCHERICHIA COLI DC-2): > 100 µg/mL
- MIC (PSEUDOMONAS CEPACIA 296I): > 100 µg/mL
- MIC [2]: 0.39 µg/mL (≈ 0.531 µM)
- MIC [3]: > 100 µg/mL
- activity against Gram-negative bacteria (Grarn-negative bacteria): only weak activity
- MIC [4]: > 100 µg/mL
- MIC [5]: 0.2 µg/mL (≈ 0.273 µM)
- MIC (ESCHERICHIA COLI KNK 437): 50 µg/mL (≈ 68.1 µM)
- MIC [6]: > 100 µg/mL
- MIC [7]: > 100 µg/mL
- MIC [8]: 0.2 µg/mL (≈ 0.273 µM)
- MIC [9]: 6.2 µg/mL (≈ 8.45 µM)
- MIC (CANDIDA ALBICANS CCH 442): > 100 µg/mL
- MIC [10]: > 100 µg/mL
- MIC (ESCHERICHIA COLI SS): 0.2 µg/mL (≈ 0.273 µM)
- MIC [11]: 100 µg/mL (≈ 136 µM)
- MIC [12]: > 100 µg/mL
- MIC [13]: 0.2 µg/mL (≈ 0.273 µM)
- MIC [14]: 0.78 µg/mL (≈ 1.06 µM)
- MIC [15]: 0.02 µg/mL (≈ 0.0273 µM)
- MIC (STR[…] 508): 0.05 µg/mL (≈ 0.0681 µM)
- MIC (EN[…] ATCC 8043): 0.05 µg/mL (≈ 0.0681 µM)
- MIC (M[…] ATCC 9341): 0.02 µg/mL (≈ 0.0273 µM)
- MIC (M[…] ATCC 4698): 0.2 µg/mL (≈ 0.273 µM)
- MIC [16]: 0.39 µg/mL (≈ 0.531 µM)
- MIC (ESCHERICHIA COLI JUHL): 100 µg/mL (≈ 136 µM)
- MIC [17]: > 100 µg/mL
- MIC [18]: > 100 µg/mL
- MIC [19]: 0.05 µg/mL (≈ 0.0681 µM)
- MIC [20]: 100 µg/mL (≈ 136 µM)
- MIC [21]: 0.05 µg/mL (≈ 0.0681 µM)
- MIC (H. Influenza Dill AMP R): 4 µg/mL (≈ 5.45 µM)
- MIC [22]: 6.2 µg/mL (≈ 8.45 µM)

Compound: CC[C@H]1OC(=O)[C@H](C)C(=O)[C@H](C)[C@@H](O[C@@H]2O[C@H](C)C[C@H](N(C)C)[C@H]2O)[C@](C)(OC)C[C@@H](C)C2=NC3CN(S(=O)(=O)Cc4ccccc4[N+](=O)[O-])CC3N3C(=O)O[C@@]1(C)[C@H]3[C@H]2C (stereo partly drawn) [Example 123]
- MIC [1]: > 100 µg/mL
- MIC (ESCHERICHIA COLI H560): > 100 µg/mL
- MIC (ESCHERICHIA COLI DC-2): > 100 µg/mL
- MIC (PSEUDOMONAS CEPACIA 296I): > 100 µg/mL
- MIC [2]: 3.1 µg/mL (≈ 3.53 µM)
- MIC [3]: > 100 µg/mL
- MIC [4]: > 100 µg/mL
- MIC [5]: 3.1 µg/mL (≈ 3.53 µM)
- MIC (ESCHERICHIA COLI KNK 437): > 100 µg/mL
- MIC [6]: > 100 µg/mL
- MIC [7]: > 100 µg/mL
- MIC [8]: 1.56 µg/mL (≈ 1.78 µM)
- MIC [9]: 3.1 µg/mL (≈ 3.53 µM)
- MIC (CANDIDA ALBICANS CCH 442): > 100 µg/mL
- MIC [10]: > 100 µg/mL
- MIC (ESCHERICHIA COLI SS): 6.2 µg/mL (≈ 7.06 µM)
- MIC [11]: > 100 µg/mL
- MIC [12]: > 100 µg/mL
- MIC [13]: 3.1 µg/mL (≈ 3.53 µM)
- MIC [14]: 25 µg/mL (≈ 28.5 µM)
- MIC [15]: 12.5 µg/mL (≈ 14.2 µM)
- MIC (STR[…] 508): 0.1 µg/mL (≈ 0.114 µM)
- MIC (EN[…] ATCC 8043): 0.39 µg/mL (≈ 0.444 µM)
- MIC (M[…] ATCC 9341): 0.39 µg/mL (≈ 0.444 µM)
- MIC (M[…] ATCC 4698): 1.56 µg/mL (≈ 1.78 µM)
- MIC [16]: 3.1 µg/mL (≈ 3.53 µM)
- MIC (ESCHERICHIA COLI JUHL): > 100 µg/mL
- MIC [17]: > 100 µg/mL
- MIC [18]: > 100 µg/mL
- MIC [19]: 0.1 µg/mL (≈ 0.114 µM)
- MIC [20]: > 100 µg/mL
- MIC [23]: > 100 µg/mL
- MIC [21]: 0.1 µg/mL (≈ 0.114 µM)
- MIC (H. Influenza Dill AMP R): 128 µg/mL (≈ 146 µM)
- MIC [22]: 1.56 µg/mL (≈ 1.78 µM)

Compound: CCC1OC(=O)C(C)C(=O)C(C)C(OC2OC(C)CC(N(C)C)C2O)C(C)(OC)CC(C)C2=NCC(CSc3ccccc3)(CN(C)C)N3C(=O)OC1(C)C3C2C (stereo not drawn) [Example 135]
- MIC [1]: > 100 µg/mL
- MIC (ESCHERICHIA COLI H560): > 100 µg/mL
- MIC (ESCHERICHIA COLI DC-2): > 100 µg/mL
- MIC (PSEUDOMONAS CEPACIA 296I): > 100 µg/mL
- MIC [2]: 3.1 µg/mL (≈ 3.79 µM)
- MIC [3]: > 100 µg/mL
- MIC [4]: > 100 µg/mL
- MIC [5]: 3.1 µg/mL (≈ 3.79 µM)
- MIC (ESCHERICHIA COLI KNK 437): > 100 µg/mL
- MIC [6]: > 100 µg/mL
- MIC [7]: > 100 µg/mL
- MIC [8]: 1.56 µg/mL (≈ 1.91 µM)
- MIC [9]: 1.56 µg/mL (≈ 1.91 µM)
- MIC (CANDIDA ALBICANS CCH 442): > 100 µg/mL
- MIC [10]: > 100 µg/mL
- MIC (ESCHERICHIA COLI SS): 1.56 µg/mL (≈ 1.91 µM)
- MIC [11]: > 100 µg/mL
- MIC [12]: > 100 µg/mL
- MIC [13]: 3.1 µg/mL (≈ 3.79 µM)
- MIC [14]: 6.2 µg/mL (≈ 7.59 µM)
- MIC [15]: 1.56 µg/mL (≈ 1.91 µM)
- MIC (STR[…] 508): 0.2 µg/mL (≈ 0.245 µM)
- MIC (EN[…] ATCC 8043): 0.39 µg/mL (≈ 0.477 µM)
- MIC (M[…] ATCC 9341): 0.2 µg/mL (≈ 0.245 µM)
- MIC (M[…] ATCC 4698): 1.56 µg/mL (≈ 1.91 µM)
- MIC [16]: 3.1 µg/mL (≈ 3.79 µM)
- MIC (ESCHERICHIA COLI JUHL): > 100 µg/mL
- MIC [17]: > 100 µg/mL
- MIC [18]: > 100 µg/mL
- MIC [19]: 0.2 µg/mL (≈ 0.245 µM)
- MIC [20]: > 100 µg/mL
- MIC [23]: > 100 µg/mL
- MIC [21]: 0.1 µg/mL (≈ 0.122 µM)
- MIC (H. Influenza Dill AMP R): 64 µg/mL (≈ 78.3 µM)
- MIC [22]: 1.56 µg/mL (≈ 1.91 µM)
